Data from patent US20110038885A1, “CHEMOKINE ANALOGS” (priority 2007, published 2011).
Bridge positions count the residues as written; N and C are the ends. Square brackets hold non-standard residues; d marks the D form. Peptide text beside a SMILES is read from it. AEEA = NCCOCCOCC(=O)O; Aoc = NCCCCCCCC(=O)O

Key:
MCP-1 = assay: In vitro chemotaxis (trans-well migration) v MCP-1; type: cell-based, human
Outline: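 Trans-well migration toward IL-8 or MCP-1 placed below, with agent added to THP-1 cells (10^4-10^6) in the top well and incubation at 37° C (e.g. 4 hours). MTT absorbance at 595 nm, interpolated on a cell standard curve, gives migrated cell numbers; TGFβ-type negative control and cytotoxicity check included.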

IL-8 = assay: In vitro chemotaxis, inhibition v IL-8; type: cell-based, human; parameters: concentration or dose not given beside the values
Protocol: To determine whether an agent inhibits a chemokine-induced activity, such as macrophage recruitment, varying amounts of the agent are mixed with cells in the presence of a known chemoattractant. For example, a range of known concentrations of an agent, e.g., a chemokine peptide, is incubated with a defined number (e.g., 10^4-10^6) of human THP-1 monocyte cells in individual wells of the top compartment of a trans-well plate. Chemokine, at a concentration known to cause significant migration of THP-1 cells in the trans-well migration assay, is placed in the lower compartment of a trans-well plate. Cells are then incubated at 37° C. for a period sufficient to allow migration, e.g., 4 hours. After incubation, the cells are gently removed from the top of the filter with a pipette, 20 μl of 20 mM EDTA in simple PBS is added into each top well, and incubated for 20 minutes at 4° C. The filter is carefully flushed with media using a gentle flow, and removed. A standard curve consisting of a two-fold dilution series of THP-1 cells (in 29 μl) is placed to accurately quantify the number of cells that have migrated. Migrated cells are stained with 3 μl of MTT stock dye solution which is added directly into each well (5 mg/ml in RPMI-1640 without phenol red) (Sigma Chemical Co., St. Louis, Mo., USA) and incubated at 37° C. for 4 hours. The media is carefully aspirated from each well, and the converted dye is solubilized by 20 μl of DMSO. Absorbance of converted dye is measured at a wavelength of 595 nm using an ELISA plate reader. The number of migrated cells in each well is then determined by interpolation of the standard curve (see also Imai et al., J. Biol. Chem., 272:15036, 1997). Any method suitable for counting cells can be used, for example, counting with a hemocytometer, incubation of the cells with MTT (see above), or FACS analysis. A negative control assay is also performed, using TGFβ or another non-chemokine chemoattractant (e.g., IL1β or TNFα). To assess whether the agent is cytotoxic, the same concentrations of agent are incubated with THP-1 cells. Agents which 1) are not cytotoxic at levels which inhibit migration, 2) are ineffective at inhibiting the negative control-induced migration, and 3) reduce or inhibit chemokine-induced THP-1 migration, are agents which fall within the scope of the invention.

Compound	EC50 (MCP-1)	v IL-8 inhibition (%) (IL-8)
CC[C@H](C)[C@@H]1NC(=O)[C@H](Cc2c[nH]c3ccccc23)NC(=O)[C@H](CCCCN)NC(=O)[C@H](CCC(N)=O)NC(=O)[C@H](CCCCN)NC(=O)[C@@H](NC(=O)[C@@H]2CCCN2C(=O)[C@@H](N)CC(=O)O)CSSC[C@@H](C(N)=O)NC(=O)[C@H](CCC(N)=O)NC1=O [Example 40, Asp-Pro-c(Cys-Lys-Gln-Lys-Trp-Ile-Gln-Cys)-NH2] (H-DPCKQKWIQC-NH2; disulfide 3-10)	7 nM	113.5%
CC[C@H](C)[C@@H]1NC(=O)[C@H](Cc2c[nH]c3ccccc23)NC(=O)[C@H](CCCCN)NC(=O)[C@H](CCC(N)=O)NC(=O)[C@@H](NC(=O)[C@H](CCCCN)NC(=O)[C@@H]2CCCN2C(=O)[C@@H](N)CC(=O)O)CSSC[C@@H](C(N)=O)NC(=O)[C@H](CCC(N)=O)NC1=O [Example 41, Asp-Pro-Lys-c(Cys-Gln-Lys-Trp-Ile-Gln-Cys)-NH2] (H-DPKCQKWIQC-NH2; disulfide 4-10)	80 nM	67.8%
CC[C@H](C)[C@@H]1NC(=O)[C@H](Cc2c[nH]c3ccccc23)NC(=O)[C@H](CCCCN)NC(=O)[C@H](CCC(N)=O)NC(=O)[C@H](CCCCN)NC(=O)[C@@H]2CCCN2C(=O)[C@H](CC(=O)O)NC(=O)[C@@H](N)CSSC[C@@H](C(N)=O)NC(=O)[C@H](CCC(N)=O)NC1=O [Example 42, c(Cys-Asp-Pro-Lys-Gln-Lys-Trp-Ile-Gln-Cys)-NH2] (H-CDPKQKWIQC-NH2; disulfide 1-10)	25 nM	94.4%
CC[C@H](C)[C@@H]1NC(=O)[C@H](Cc2c[nH]c3ccccc23)NC(=O)[C@H](CCCCN)NC(=O)[C@H](CCC(N)=O)NC(=O)[C@H](CCCCN)NC(=O)[C@@H](NC(=O)[C@@H]2CCCN2)CSSC[C@@H](C(N)=O)NC(=O)[C@H](CCC(N)=O)NC1=O [Example 43, Pro-c(Cys-Lys-Gln-Lys-Trp-Ile-Gln-Cys)-NH2] (H-PCKQKWIQC-NH2; disulfide 2-9)	600 nM	21.9%
CC[C@H](C)[C@@H]1NC(=O)[C@H](Cc2c[nH]c3ccccc23)NC(=O)[C@H](CCCCN)NC(=O)[C@H](CCC(N)=O)NC(=O)[C@@H](NC(=O)[C@H](CCCCN)NC(=O)[C@@H]2CCCN2)CSSC[C@@H](C(N)=O)NC(=O)[C@H](CCC(N)=O)NC1=O [Example 44, Pro-Lys-c(Cys-Gln-Lys-Trp-Ile-Gln-Cys)-NH2] (H-PKCQKWIQC-NH2; disulfide 3-9)	1000 nM	12.9%
CC[C@H](C)[C@@H]1NC(=O)[C@H](Cc2c[nH]c3ccccc23)NC(=O)[C@H](CCCCN)NC(=O)[C@@H](NC(=O)[C@H](CCC(N)=O)NC(=O)[C@H](CCCCN)NC(=O)[C@@H]2CCCN2)CSSC[C@@H](C(N)=O)NC(=O)[C@H](CCC(N)=O)NC1=O [Example 45, Pro-Lys-Gln-c(Cys-Lys-Trp-Ile-Gln-Cys)-NH2] (H-PKQCKWIQC-NH2; disulfide 4-9)	150 nM	74.2%
CC[C@H](C)[C@@H]1NC(=O)[C@H](Cc2c[nH]c3ccccc23)NC(=O)[C@H](CCCCN)NC(=O)[C@H](CCC(N)=O)NC(=O)[C@H](CCCCN)NC(=O)[C@@H]2CCCN2C(=O)[C@@H](N)CSSC[C@@H](C(N)=O)NC(=O)[C@H](CCC(N)=O)NC1=O [Example 46, c(Cys-Pro-Lys-Gln-Lys-Trp-Ile-Gln-Cys)-NH2] (H-CPKQKWIQC-NH2; disulfide 1-9)	150 nM	52.4%
CC[C@H](C)[C@@H]1NC(=O)[C@H](Cc2c[nH]c3ccccc23)NC(=O)[C@H](CCCCN)NC(=O)[C@H](CCC(N)=O)NC(=O)[C@@H](NC(=O)[C@@H](N)CCCCN)CSSC[C@@H](C(N)=O)NC(=O)[C@H](CCC(N)=O)NC1=O [Example 47, Lys-c(Cys-Gln-Lys-Trp-Ile-Gln-Cys)-NH2] (H-KCQKWIQC-NH2; disulfide 2-8)	20 nM	103.2%
CC[C@H](C)[C@@H]1NC(=O)[C@H](Cc2c[nH]c3ccccc23)NC(=O)[C@H](CCCCN)NC(=O)[C@H](CCC(N)=O)NC(=O)[C@H](CCCCN)NC(=O)[C@@H](N)CSSC[C@@H](C(N)=O)NC(=O)[C@H](CCC(N)=O)NC1=O [Example 49, c(Cys-Lys-Gln-Lys-Trp-Ile-Gln-Cys)-NH2] (H-CKQKWIQC-NH2; disulfide 1-8)	100 nM	72.6%
CC[C@H](C)[C@@H]1NC(=O)[C@H](Cc2c[nH]c3ccccc23)NC(=O)[C@H](CCCCN)NC(=O)[C@H](CCC(N)=O)NC(=O)[C@@H](N)CSSC[C@@H](C(N)=O)NC(=O)[C@H](CCC(N)=O)NC1=O [Example 50, c(Cys-Gln-Lys-Trp-Ile-Gln-Cys)-NH2] (H-CQKWIQC-NH2; disulfide 1-7)	25 nM	104.8%
CC[C@H](C)[C@@H]1NC(=O)[C@H](Cc2c[nH]c3ccccc23)NC(=O)[C@@H](NC(=O)[C@@H](N)CCCCN)CSSC[C@@H](C(N)=O)NC(=O)[C@H](CCC(N)=O)NC1=O [Example 51, Lys-c(Cys-Trp-Ile-Gln-Cys)-NH2] (H-KCWIQC-NH2; disulfide 2-6)	80 nM	115.9%
CC[C@@H](C)[C@H]1NC(=O)[C@@H](CCC(N)=O)NC(=O)[C@H](N)CSSC[C@H](C(=O)NCCOCCOCC(=O)NCCCCCCCC(=O)O)NC(=O)[C@@H](CC(C)C)NC(=O)[C@@H](CC(=O)O)NC(=O)[C@H]2CCCN2C(=O)[C@@H](CCCCN)NC(=O)[C@@H](CCC(N)=O)NC(=O)[C@@H](CCCCN)NC(=O)[C@@H](Cc2c[nH]c3ccccc23)NC1=O [Example 138, c(D-Cys-D-Gln-D-Ile-D-Trp-D-Lys-D-Gln-D-Lys-D-Pro-D-Asp-D-Leu-D-Cys)-Doc-Aoc-OH] (H-[dC][dQ][dI][dW][dK][dQ][dK][dP][dD][dL][dC][AEEA][Aoc]-OH; disulfide 1-11)	20 nM	98.4%
CC[C@@H](C)[C@H]1NC(=O)[C@@H](CCC(N)=O)NC(=O)[C@H](N)CSSC[C@H](C(=O)NCCCCCCCC(=O)O)NC(=O)[C@@H](CC(C)C)NC(=O)[C@@H](CC(=O)O)NC(=O)[C@H]2CCCN2C(=O)[C@@H](CCCCN)NC(=O)[C@@H](CCC(N)=O)NC(=O)[C@@H](CCCCN)NC(=O)[C@@H](Cc2c[nH]c3ccccc23)NC1=O [Example 139, c(D-Cys-D-Gln-D-Ile-D-Trp-D-Lys-D-Gln-D-Lys-D-Pro-D-Asp-D-Leu-D-Cys)-Aoc-OH] (H-[dC][dQ][dI][dW][dK][dQ][dK][dP][dD][dL][dC][Aoc]-OH; disulfide 1-11)	100 nM	47.0%
CC[C@@H](C)[C@H]1NC(=O)[C@@H](CCC(N)=O)NC(=O)[C@H](N)CSSC[C@H](C(=O)N[C@H](C(=O)N[C@@H](CCC(=O)O)C(=O)NCCCCCCCC(=O)O)[C@@H](C)CC)NC(=O)[C@@H](CC(C)C)NC(=O)[C@@H](CC(=O)O)NC(=O)[C@H]2CCCN2C(=O)[C@@H](CCCCN)NC(=O)[C@@H](CCC(N)=O)NC(=O)[C@@H](CCCCN)NC(=O)[C@@H](Cc2c[nH]c3ccccc23)NC1=O [Example 140, c(D-Cys-D-Gln-D-Ile-D-Trp-D-Lys-D-Gln-D-Lys-D-Pro-D-Asp-D-Leu-D-Cys)-Ile-Glu-Aoc-OH] (H-[dC][dQ][dI][dW][dK][dQ][dK][dP][dD][dL][dC]IE[Aoc]-OH; disulfide 1-11)	400 nM	43.4%
CC[C@@H](C)[C@H]1NC(=O)[C@@H](CCC(N)=O)NC(=O)[C@H](N)CSSC[C@H](C(=O)N[C@@H](C(=O)N[C@H](CCC(=O)O)C(=O)NCCCCCCCC(=O)O)C(C)C)NC(=O)[C@@H](CC(C)C)NC(=O)[C@@H](CC(=O)O)NC(=O)[C@H]2CCCN2C(=O)[C@@H](CCCCN)NC(=O)[C@@H](CCC(N)=O)NC(=O)[C@@H](CCCCN)NC(=O)[C@@H](Cc2c[nH]c3ccccc23)NC1=O [Example 141, c(D-Cys-D-Gln-D-Ile-D-Trp-D-Lys-D-Gln-D-Lys-D-Pro-D-Asp-D-Leu-D-Cys)-D-Val-D-Glu-Aoc-OH] (H-[dC][dQ][dI][dW][dK][dQ][dK][dP][dD][dL][dC][dV][dE][Aoc]-OH; disulfide 1-11)	330 nM	27.5%
